Results on 2 compounds are retold here after patent US8350015B2, “Cyanine dye” (Kabushiki Kaisha Hayashibara Seibutsu Kagaku Kenkyujo, priority 2004, dated 2013).

The data set can be described thus: Optical resistance of cyanine dye thin membrane exposed to xenon lamp. As to conditions: xenon lamp 180 W/m^2, exposure 5.5 hours. It counts as physicochemical. As to the method: The resulting solution was poured dropwise on one side of a polished glass plate (5 cm×5 cm) and homogenously spread over the surface of the plate by turning the plate at 1,000 rpm for one minute. Successively, thin membrane of the cyanine dye in this invention was formed on the glass plate by drying in the ventilation of warm and cooled air in this order. Immediately after determining optical transmittance (T0) of the cyanine dye in the form of thin membrane at absorption maximum (about 450 nm) wavelength, the membrane was exposed to xenon lamp (light-irradiation energy of 180 W/m^2 on the plate surface) in the ventilation of cooled air while placing […] xenon lamp with a prescribed distance away from the glass plate, after which the membrane was immediately determined for optical transmittance (T) at absorption maximum wavelength. Thereafter, residual dye rate (%) was calculated by substituting the obtained optical transmittances (T and T0) to Formula 1. In parallel, another thin membrane formed by cyanine dye represented by Chemical Formula 14 (Control 1), a additional thin membrane formed by cyanine dye represented by Chemical Formula 16 (Control 2), a further thin membrane formed by cyanine dye represented by Chemical Formula 14 and an equimolar azometallic complex represented by Chemical Formula 15 as an optical resistance-improving agent (Control 3), and one more additional thin membrane formed by cyanine dye represented by Chemical Formula 16 and an equimolar azometallic complex represented by Chemical Formula 15 as an optical resistance-improving agent (Control 4) were determined for optical resistance similarly as above.

The mark [1] stands for this setting: thin membrane on glass plate, no optical resistance-improving agent, transmittance at absorption maximum (about 450 nm).
[2] abbreviates: thin membrane with equimolar azometallic complex Chemical Formula 15 as optical resistance-improving agent.

Turning to `CN1C(=CC2=[N+](C)c3ccccc3C2(C)C)C(C)(C)c2ccccc21` [Chemical Formula 14], the “Residual dye rate (%)” value came out at 29.3% under setting [1] and 91.7% under setting [2].
As to `CN1C(=CC2=[N+](C)c3ccc4ccccc4c3C2(C)C)C(C)(C)c2c1ccc1ccccc21` [Chemical Formula 16], the “Residual dye rate (%)” value under setting [1] worked out at 30.1% and the “Residual dye rate (%)” value under setting [2] is 92.2%.
